Reference: US20250276999A1, “PEPTIDES FOR PROMOTING HAIR FOLLICLE NEOGENESIS, AND PREVENTION/MITIGATION OF UNTOWARD EFFECTS OF RADIATION TREATMENT” (Trustees of Tufts College, priority 2022, published 2025)
Entries after “also recorded” stand apart in the source; their conditions may differ.

Test system: X-ray irradiated and wounded mice
Assay: Combined injury murine model (thoracic X-ray irradiation plus wound)
Format: in vivo, C57BL/6 mice
Source text: The C57BL/6 strain of mice has been utilized extensively for the study of radiation-induced skin injuries. We determined that 16 Gy is the minimal dosage for the induction of radiation burns in C57BL/6 mice that are not repaired within 45 days. Sham irradiated mice without wounds were used as controls for radiation dermatitis, and treated identically as irradiated mice. Wounded mice, without radiation, were used as controls for combined injury.
Animals were irradiated in the RS2000 small animal irradiator. The RS2000 provides a cone-shaped radiation field with irradiation at 12.39-40.50 cm from the X-ray source. For dose measurements, irradiation was performed with the following settings: 160 kVp, 25 mA, 90 s irradiation time and 0.3 mm Cu beam filtration. The approximate HVL provided by the manufacturer was 0.62 mm Cu. The University of Wisconsin Medical Radiation Research Center (UW MRRC) provided eight acrylic mouse phantoms with three (1×1×1 mm) Harshaw thermoluminenscence dosimeter (TLD)-100 microcubes (ThermoElectron Corp., Oakwood Village, OH) embedded in each phantom. The cylindrical phantom had dimensions of 27 mm in diameter (D)×65 mm in length (L) and was stabilized by a cylindrical insert 15 mm (D)×27 mm (L) with a 3 mm thick stand. A custom lead shield was placed on the floor of the irradiator, with the mouse thoracic region ˜43.75 cm from the X-ray source. Dose measurements were conducted twice to account for set-up error and reproducibility. TLDs were processed at UW MRRC using a national standard with an expanded uncertainty (k=2) of 5%. The dose rate was reported for each aperture position 1-4 as an absorbed dose rate to water (ADRW, Gy/min) and the two repeated measurements were averaged.
Mice (12-14 weeks of age) were anesthetized using inhaled anesthesia (isoflurane), and the fur was clipped on the dorsal side of the thoracic region. Two days after fur clipping, mice to be used for combined injury were given acetaminophen (150 mg/kg in 0.5 ml sterile saline) by gavage. Animals were then anesthetized with injected anesthesia (150 mg/kg ketamine/18 mg/kg xylazine) and placed in Lucite jigs for exposure to 16.5 Gy thoracic irradiation in the RS2000 X-ray irradiator as previously described. For combined injury, immediately following thoracic irradiation and while still under anesthesia, the area of the skin was scrubbed with betadine or chlorhexidine, followed by cleaning with an alcohol pad. A 9/16 inch diameter punch biopsy tool was used to create a 1 cm wound in the central dorsal thoracic region, roughly in the center of the field of radiation exposure. The panniculus carnosus muscle and overlying skin will be removed. The wound will be left open to air. The size of the wound approximates 15% of the total body skin surface.
TSN6 peptide (5 μg/day in 50 μl sterile saline) or hepatocyte growth factor (HGF; 3.3 μg/day in 50 μl sterile saline) or vehicle (sterile saline, 50 μl) were injected subcutaneously on days 2, 7 and 10 post-irradiation. Injections were made caudal, adjacent to the irradiated or irradiated/wounded area.
Animals were monitored daily for 85 days post-irradiation for both radiation dermatitis and combined injury models. Radiation dermatitis was separately scored for hair loss, erythema, scale, and ulceration. Scoring for erythema, scale and ulceration were previously described: 0=none; 1=minimal; 2=mild; 3=moderate; 4=marked. Because all animals underwent fur clipping prior to irradiation and wounding, scoring for hair loss was determined as failure to regrow hair in the irradiated areas: 0=none; 1=minimal; 2=mild; 3=moderate; 4=marked. Animals were photographed for the measurement of wounds and for dermatitis scoring. […] Weight was measured as an indication of overall health.

[1] = 16.5 Gy plus wound, s.c. days 2, 7, 10, TSN6 5 μg/day, HGF 3.3 μg/day

## HSPDIQLQKGLTFEPIQIK [TSN6, 19 amino acid peptide derived from multimerin-1, Coiled coil domain]
16.5 Gy plus 9/16 inch wound, TSN6 5 μg/day s.c. days 2, 7, 10, irradiated vehicle ~30 days, no radiation ~14 days
  time to wound closure in the presence of radiation: about 16 days post-irradiation
16.5 Gy plus wound, TSN6 5 μg/day s.c. days 2, 7, 10 (FIG. 7)
  combined injury (overall): Mitigation of combined injury
[1]
  characteristics of radiation dermatitis (hair loss, scale, erythema, ulceration) including combined score: markedly reduced
  rate of wound closure / wound repair: increased the rate of wound closure
57, 71 and 75/79 days post-irradiation, vs vehicle (FIG. 13)
  radiation dermatitis in images of mice: vast improvement; also recorded: improves radiation dermatitis
79 days post-irradiation (FIG. 13C)
  wound closure: full wound closure
79 days post-irradiation, vehicle: no hair regrowth (FIG. 13)
  hair regrowth: hair regrowth; also recorded: regrows pigmented hair
